Read-outs that look alike come from different tables or passages of the source.
How the values were obtained:
[1] = tested on: Ishikawa cells, expressing ERα and ERβ; settings: 0.001–0.01 nM with GEN, DAI or EQ 0.001–0.1 µM; ref Grgic et al. [2022]; cited from earlier work
[2] = molecular target: T1, ERα (hERα-HeLa-9903 cells) (Homo sapiens, UniProt P03372); test: cell-based; assay type: cell-based; settings: for Luciferase induction: 1 nM E2=100%; for induced ERα-dependent luciferase expression in concentrations above: abstract; for concentration at which an increase in luciferase activity was initiated: discussion
T1 construct: host or cells: hERα-HeLa-9903 (modified human cervical HeLa cell line)
Method: The assays were performed in 96-well plates following the instructions of the manufacturer (Promega [2007]). Per well, 10,000 hERα-HeLa-9903 cells in assay medium were seeded and grown for 3 h. […] The substances were previously dissolved in DMSO in […] higher concentrations than the tested concentration, followed by dilution in the assay medium. In case of single substance testing and for the solvent control, DMSO was added to reach 0.1% in the final incubation solutions. Concentrations ranged from 0.001 to 100 nM in case of ZEN and its metabolites and 0.001 to 100 µM in case of ISF, with 1:10 dilution steps in between. […] All experiments were performed in technical triplicates and at least five independent biological replicates.
Following the 24-h incubation, the supernatants were discarded and 100 µL of a ONE-Glo™ EX luciferase incubation solution (1:1 dilution of OGL reagent and EMEM (5% CD-FBS)) was added and shaken for 5 min. Subsequently, 90 µL of the supernatant of each well was transferred to a new, white 96-well plate. The luminescence of the white plate was directly measured with a gain of 140 using the Victor V3 1240 Multilabel Counter from Perkin Elmer (Waltham/MA, USA) or the Cytation 3 Cell Imaging Multi-Mode Reader from Biotek® (Winooski/VT, USA).

hERα-HeLa-9903 cells [3] = tested on: hERα-HeLa-9903 cells
[4] = tested on: firefly luciferase encoding gene (hERα-HeLa-9903 cells); test: RT-qPCR of luciferase mRNA; assay type: cell-based, human; settings: 10 nM, 24 h
Method: For the RT-qPCR, cells (hERα-HeLa-9903) were seeded in assay medium in 12-well plates at a density of 150,000 cells and allowed to grow for 24 h. Incubation solutions contained 0.1% DMSO and the test compounds and compound mixtures at various concentrations. After the same incubation time as the OGL-assay (24 h), cells were washed and subsequently the total RNA was extracted following the RNeasy Mini Kit protocol from Qiagen. The following reverse transcription was performed according to the QuantiTect-Reverse-Transcription manual (Qiagen [2009]) to transcribe 1 µg RNA to cDNA. Then, RT-qPCR was performed using primers for the firefly luciferase encoding gene with the following oligonucleotide sequences for reverse primer 5′-[…]-3′ and forward primer 5′-[…]-3′, as well as the endogenous control primers delta-aminolevulinate synthase (1HS_ALAS1_1_SG, QT00073122), actin beta (Hs_ACTB_1_SG, QT00095431) and glyceraldehyde-3-phosphate dehydrogenase (Hs_GAPDH_1_SG, QT00079247) with SYBR green as fluorescent probe. The amplification the following setting was applied: 95 °C for 2 min, followed by 40 repetition cycles of: 95 °C (15 s), 55 °C (15 s), 72 °C (60 s). […] Quantification was performed according to Livak and Schmittgen ([2001]) using the 2-ΔΔCt method resulting in the depiction of fold-changes in comparison to the solvent control.

hERα-HeLa-9903 cells [5] = test: Sulforhodamine B (SRB) assay, cell protein amount; assay type: cell-based, human; settings: 10 µM 4-OH-TAM, 24 h
Method: The SRB assay was conducted immediately after the CTB assay. Following the removal of the remaining CTB solution the cells in each well were fixed with 10 µL of a 50% trichloroacetic acid solution in distilled water. The 96-well plates were placed for 1 h into the refrigerator at 4 °C. Upon this cold incubation, the plates were carefully rinsed twice with tap water and then left to dry in a dark surrounding. Once the plates had dried, 50 µL of the SRB solution was pipetted into each well. The dye was left to stain the proteins for 1 h, again in a dark setting at room temperature. Afterwards the dye was rinsed off twice with tap water and twice with a 1% acetic acid solution. […] Once the plates had dried, the SRB solution bound to the protein components of the cells was dissolved in 100 µL of an alkaline Tris base solution (0.30 g tris(hydroxymethyl-) aminomethane solved in 250 mL distilled water) by shaking for 5 min in the plate reader (Victor V3 1240 Multilabel Counter from Perkin Elmer (Waltham/MA, USA) or the Cytation 3 Cell Imaging Multi-Mode Reader from Biotek® (Winooski/VT Vermont, USA)). Subsequently, the absorbance was measured at 570 nm and as for the CTB; the final results were referred to the solvent control (0.1% DMSO) in percentage.

[6] = single mycoestrogen 100 nM, 24 h

T1 sequence (P03372 whole entry): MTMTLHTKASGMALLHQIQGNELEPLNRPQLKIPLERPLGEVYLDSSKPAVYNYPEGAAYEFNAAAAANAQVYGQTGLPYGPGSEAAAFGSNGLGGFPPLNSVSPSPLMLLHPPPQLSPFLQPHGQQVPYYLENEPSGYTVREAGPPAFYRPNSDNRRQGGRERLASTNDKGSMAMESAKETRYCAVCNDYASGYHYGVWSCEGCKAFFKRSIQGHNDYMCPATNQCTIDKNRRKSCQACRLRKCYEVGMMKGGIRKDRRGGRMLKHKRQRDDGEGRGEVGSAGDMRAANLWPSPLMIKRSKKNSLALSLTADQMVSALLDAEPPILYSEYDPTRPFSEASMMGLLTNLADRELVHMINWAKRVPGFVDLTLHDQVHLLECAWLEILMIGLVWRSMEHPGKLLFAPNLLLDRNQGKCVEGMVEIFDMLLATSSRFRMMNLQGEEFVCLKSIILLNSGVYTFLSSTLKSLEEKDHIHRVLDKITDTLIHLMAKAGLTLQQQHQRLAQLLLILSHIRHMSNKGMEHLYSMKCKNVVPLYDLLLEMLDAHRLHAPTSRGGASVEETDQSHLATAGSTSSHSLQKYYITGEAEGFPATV

Structure (SMILES): C[C@H]1CCC[C@H](O)CCCCCc2cc(O)cc(O)c2C(=O)O1 [α-zearalanol]
- estrogenic response in combination compared to single substances [1]: significantly enhanced the estrogenic response

Structure (SMILES): Oc1ccc([C@H]2COc3cc(O)ccc3C2)cc1 [EQ, S-equol]
- EC50 ([2]; isoflavones, 24 h, read-out: EC50 (sigmoidal dose-response curve fit of luciferase induction)): 1600 ± 200 nM
- Luciferase induction ([2]; single isoflavone 10 μM, 24 h): 334%
- metabolic activity (CTB) vs solvent control (hERα-HeLa-9903 cells [3]): no significant difference was observed

Structure (SMILES): O=c1c(-c2ccc(O)cc2)coc2cc(O)ccc12 [DAI, daidzein]
- transcriptional activity compared to E2 after calculating the difference between 4-OH-TAM treated and untreated samples [2]: higher transcriptional activity
- metabolic activity (CTB) vs solvent control (hERα-HeLa-9903 cells [3]): no significant difference was observed

Structure (SMILES): C[C@H]1CCC[C@H](O)CCC/C=C/c2cc(O)cc(O)c2C(=O)O1 [α-ZEL, α-zearalenol]
- potency to induce luciferase compared to ZEN ([2]; 0.01 to 10 nM): higher potency
- induced ERα-dependent luciferase expression in concentrations above [2]: > 10 pM
- concentration at which an increase in luciferase activity was initiated [2]: 0.01 nM
- EC50 ([2]; mycoestrogens, 24 h, read-out: EC50 (sigmoidal dose-response curve fit of luciferase induction)): 0.057 ± 0.004 nM
- Luciferase induction [2, 6]: 95%
- estrogenic response in combination compared to single substances [1]: significantly enhanced the estrogenic response

Structure (SMILES): C[C@H]1CCCC(=O)CCC/C=C/c2cc(O)cc(O)c2C(=O)O1 [ZEN, zearalenone]
- EC50 [2]: 24.4 ± 0.4 nM
- induced ERα-dependent luciferase expression in concentrations above [2]: above 1 nM
- concentration at which an increase in luciferase activity was initiated [2]: 0.1 nM
- Luciferase induction [2, 6]: 86%
- luciferase mRNA levels [4]: induce luciferase mRNA levels significantly
- estrogenic response in combination compared to single substances [1]: significantly enhanced the estrogenic response

Structure (SMILES): O=c1c(-c2ccc(O)cc2)coc2cc(O)cc(O)c12 [GEN, genistein]
- metabolic activity (CTB) vs solvent control (hERα-HeLa-9903 cells [3]): no significant difference was observed

Structure (SMILES): CC/C(=C(\c1ccc(O)cc1)c1ccc(OCCN(C)C)cc1)c1ccccc1 [4-OH-TAM, (Z)-4-hydroxytamoxifen]
- protein content (SRB) (hERα-HeLa-9903 cells [5]): tendency to decrease the protein content

From publication PMC10834624, “Estrogen receptor α interaction of zearalenone and its phase I metabolite α-zearalenol in combination with soy isoflavones in hERα-HeLa-9903 cells” (Mycotoxin Research, 2023)
